Test results from patent EP0823908B1, “PYRIDO[2,3-d]PYRIMIDINES FOR INHIBITING PROTEIN TYROSINE KINASE MEDIATED [sequence] PROLIFERATION” (Warner-Lambert Company LLC, priority 1995, dated 1996).
Where two headings read alike, the source gives them in different places.

Tests used:
SW-620 = experiment: Soft agar colony formation, human colon adenocarcinoma cells; type: cell-based; conditions: SW-620, 336 h, colony formation in 0.3% soft agar, generally 2 weeks, read-out: Inhibition of Human Colon Adenocarcinoma IC50, SW-620
Protocol: (§1) Three such human cell lines were identified as HCT-8, SW-620, and HT-29. In a typical assay, the cells are suspended in 0.3% soft agar containing an invention compound at various concentration levels, and are plated into six-well plates, each plate containing a 1% agar plug. The cell plates are incubated at 37°C in a humidified carbon dioxide (5%) incubator, generally for 2 weeks. At the end of the incubation period, colonies of cells are detected by staining the wells with 1 mg/mL of p-iodonitrotetrazolium violet. The cells are counted on an optical colony counter. […] TABLE III. Inhibition of Human Colon Adenocarcinoma IC50 (µM)

C-src kinase = target: T1, C-src kinase (Homo sapiens, UniProt P12931); experiment: C-src kinase assay (poly GluTyr substrate); type: biochemical; conditions: read-out: C-src TK IC50
T1 construct: made in house; host or cells: baculovirus infected insect cells

[1] = target: T2, mouse PDGF-β receptor tyrosine kinase (Mus musculus, UniProt P05622); experiment: PDGF receptor tyrosine kinase assay (32P incorporation into glutamate-tyrosine co-polymer); type: biochemical; conditions: read-out: PDGFr-TK IC50
T2 construct: amplify a fragment of DNA that codes for the intracellular tyrosine kinase domain; made in house; host or cells: SF9 insect cells (baculovirus)
Summary of the method: (§2)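 32P transfer from γ32P-ATP (50 µM ATP) to poly(Glu,Tyr) 4:1 was measured over 10 min at 25°C and counted after TCA precipitation onto filters, minus the no-enzyme background. Enzyme was baculovirus/SF9 lysate of the kinase domain, preincubated 10 min with inhibitor in Hepes pH 7.0, MnCl2, vanadate.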

[2] = target: T3, human FGF-1 (flg) receptor tyrosine kinase (Homo sapiens, UniProt P11362); experiment: FGF receptor tyrosine kinase assay (32P incorporation into glutamate-tyrosine co-polymer); type: biochemical
T3 construct: amplify a fragment of DNA that codes for the intracellular tyrosine kinase domain; made in house; host or cells: SF9 insect cells (baculovirus)
Summary of the method: as §2

transplanted tumors = experiment: Transplanted tumor assay; type: in vivo; conditions: F1 hybrid mice; compound generally by infusion by tail tether
Protocol: F1 hybrid mice were used in the assay. The mice receive ascites fluid or dilutions of tumor brei on Day 0. A sample of the inocula is incubated in thioglycolate media as a check for gross contamination of the tumor material. After all test animals are inoculated with tumors, they are randomized for the assay. Control animals receive vehicle, while treated animals receive an invention compound dissolved in the vehicle, generally by infusion by tail tether. All animals are monitored daily for acute toxicity and other clinical signs. Survival is checked daily for the control group and treated group. The assay generally is continued for 60 days, at which time all surviving animals are euthanized.

HT-29 = experiment: Soft agar colony formation, human colon adenocarcinoma cells; type: cell-based; conditions: HT-29, 336 h, colony formation in 0.3% soft agar, generally 2 weeks, read-out: Inhibition of Human Colon Adenocarcinoma IC50, HT-29
Protocol: as §1

[3] = target: T4, Human EGF receptor tyrosine kinase (Homo sapiens, UniProt P00533); experiment: EGF receptor tyrosine kinase enzyme assay (substrate peptide phosphorylation); type: biochemical; conditions: read-out: EGF-FL IC50
T4 construct: Human EGF receptor tyrosine kinase was isolated from A431 epidermoid carcinoma cells; endogenous in cells; host or cells: A431 epidermoid carcinoma cells

HCT-8 = experiment: Soft agar colony formation, human colon adenocarcinoma cells; type: cell-based; conditions: HCT-8, 336 h, read-out: Inhibition of Human Colon Adenocarcinoma IC50, HCT-8
Protocol: as §1

PDGF receptor = PDGF receptor autophosphorylation in rat aorta smooth muscle cells; type: cell-based; conditions: PDGF-BB 30 ng/mL for 5 minutes after 2 hours with compound; read-out: Inhibition of PDGF-Stimulated Receptor Auto Phosphorylation in Rat Aortic Smooth Muscle Cells (IC50)
Protocol: Rat aorta smooth muscle cells (RASMC) were isolated from the thoracic aorta of rats and explanted according to the method of Ross, J. Cell. Biol., 30:172-186 (1971). Cells were grown in Dulbecco's modified Eagle's medium (DMEM, Gibco) containing 10% fetal calf serum (FBS, Hyclone, Logan, Utah), 1% glutamine (Gibco) and 1% penicillin/streptomycin (Gibco). Cells were identified as smooth muscle cells by their "hill and valley" growth pattern and by fluorescent staining with a monoclonal antibody specific for SMC ∝-actin (Sigma). RASMC were used between passages 5 and 20 for all experiments. Test compounds were prepared in dimethylsulfoxide (DMSO) in order to achieve consistency in the vehicle and to ensure compound solubility. Appropriate DMSO controls were simultaneously evaluated with the test compounds.
RASMC were grown to confluency in 100 mm dishes. Growth medium was removed and replaced with serum-free medium and cells were incubated at 37°C for an additional 24 hours. Test compounds were then added directly to the medium and cells incubated for an additional 2 hours. After 2 hours, PDGF-BB was added at a final concentration of 30 ng/mL for 5 minutes at 37°C to stimulated autophosphorylation of the PDGF receptor. Following growth factor treatment, the medium was removed, and cells were washed with cold phosphate-buffered saline and immediately lysed with 1 mL of lysis buffer (50 mM HEPES[pH 7.5], 150 mM NaCl, 10% glycerol, 1% Triton X-100, 1 mM EDTA, 1 mMEGTA, 50 mM NaF, 1 mM sodium orthovanadate, 30 mM p-nitrophenyl phosphate, 10 mM sodium pyrophosphate, 1 mM phenylmethyl sulfonyl fluoride, 10 µg/mL aprotinin, and 10 µg/mL leupeptin). Lysates were centrifuged at 10,000 × g for 10 minutes. […] Following the incubation, protein-A-sepharose beads were added for 2 hours with continuous mixing, and immune complexes bound to the beads washed four times with 1 mL lysis wash buffer. Immune complexes were solubilized in 30 µL of Laemmli sample buffer and electrophoresed in 4-20% SDS polyacrylamide gels. Following electrophoresis, separated proteins were transferred to nitrocellulose and immunoblotted with anti-phosphotyrosine antiserum. […] IC50 values were generated from the densitometric data.

[4] = colony formation in 0.3% soft agar, generally 2 weeks

T3 sequence (P11362 478-767 limits assumed): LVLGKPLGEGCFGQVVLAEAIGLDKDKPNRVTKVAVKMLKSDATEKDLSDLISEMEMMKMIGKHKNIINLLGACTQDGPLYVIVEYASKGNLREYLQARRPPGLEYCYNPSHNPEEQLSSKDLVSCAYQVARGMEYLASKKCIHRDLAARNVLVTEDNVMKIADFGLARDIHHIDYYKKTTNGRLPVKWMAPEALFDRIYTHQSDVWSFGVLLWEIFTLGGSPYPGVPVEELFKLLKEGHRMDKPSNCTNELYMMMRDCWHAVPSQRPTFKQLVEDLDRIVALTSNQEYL
T2 sequence (P05622 599-961 limits assumed): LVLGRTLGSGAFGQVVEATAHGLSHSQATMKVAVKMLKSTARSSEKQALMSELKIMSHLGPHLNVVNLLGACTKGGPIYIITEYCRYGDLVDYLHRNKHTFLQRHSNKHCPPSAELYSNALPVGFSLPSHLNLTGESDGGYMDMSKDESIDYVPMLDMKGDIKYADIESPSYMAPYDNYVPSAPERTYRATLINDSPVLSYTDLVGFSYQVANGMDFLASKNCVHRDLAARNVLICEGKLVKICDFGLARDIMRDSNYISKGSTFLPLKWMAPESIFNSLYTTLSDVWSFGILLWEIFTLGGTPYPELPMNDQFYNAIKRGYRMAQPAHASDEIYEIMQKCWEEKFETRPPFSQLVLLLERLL
T1 sequence (P12931 whole entry): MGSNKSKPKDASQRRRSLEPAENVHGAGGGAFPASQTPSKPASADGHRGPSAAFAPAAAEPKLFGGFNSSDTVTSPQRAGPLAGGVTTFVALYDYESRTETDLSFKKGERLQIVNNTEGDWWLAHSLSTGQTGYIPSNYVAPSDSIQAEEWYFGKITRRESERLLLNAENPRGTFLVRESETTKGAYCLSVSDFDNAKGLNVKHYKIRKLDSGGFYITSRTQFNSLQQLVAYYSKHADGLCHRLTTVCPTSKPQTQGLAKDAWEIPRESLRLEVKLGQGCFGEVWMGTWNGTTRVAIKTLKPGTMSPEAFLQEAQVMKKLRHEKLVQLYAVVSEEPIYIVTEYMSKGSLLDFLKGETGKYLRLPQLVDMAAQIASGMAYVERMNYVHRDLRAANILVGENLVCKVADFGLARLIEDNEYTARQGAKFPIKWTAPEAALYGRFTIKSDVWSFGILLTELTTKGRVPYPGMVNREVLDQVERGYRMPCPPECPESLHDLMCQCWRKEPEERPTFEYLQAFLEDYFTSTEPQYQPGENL
T4 sequence (P00533 25-1210): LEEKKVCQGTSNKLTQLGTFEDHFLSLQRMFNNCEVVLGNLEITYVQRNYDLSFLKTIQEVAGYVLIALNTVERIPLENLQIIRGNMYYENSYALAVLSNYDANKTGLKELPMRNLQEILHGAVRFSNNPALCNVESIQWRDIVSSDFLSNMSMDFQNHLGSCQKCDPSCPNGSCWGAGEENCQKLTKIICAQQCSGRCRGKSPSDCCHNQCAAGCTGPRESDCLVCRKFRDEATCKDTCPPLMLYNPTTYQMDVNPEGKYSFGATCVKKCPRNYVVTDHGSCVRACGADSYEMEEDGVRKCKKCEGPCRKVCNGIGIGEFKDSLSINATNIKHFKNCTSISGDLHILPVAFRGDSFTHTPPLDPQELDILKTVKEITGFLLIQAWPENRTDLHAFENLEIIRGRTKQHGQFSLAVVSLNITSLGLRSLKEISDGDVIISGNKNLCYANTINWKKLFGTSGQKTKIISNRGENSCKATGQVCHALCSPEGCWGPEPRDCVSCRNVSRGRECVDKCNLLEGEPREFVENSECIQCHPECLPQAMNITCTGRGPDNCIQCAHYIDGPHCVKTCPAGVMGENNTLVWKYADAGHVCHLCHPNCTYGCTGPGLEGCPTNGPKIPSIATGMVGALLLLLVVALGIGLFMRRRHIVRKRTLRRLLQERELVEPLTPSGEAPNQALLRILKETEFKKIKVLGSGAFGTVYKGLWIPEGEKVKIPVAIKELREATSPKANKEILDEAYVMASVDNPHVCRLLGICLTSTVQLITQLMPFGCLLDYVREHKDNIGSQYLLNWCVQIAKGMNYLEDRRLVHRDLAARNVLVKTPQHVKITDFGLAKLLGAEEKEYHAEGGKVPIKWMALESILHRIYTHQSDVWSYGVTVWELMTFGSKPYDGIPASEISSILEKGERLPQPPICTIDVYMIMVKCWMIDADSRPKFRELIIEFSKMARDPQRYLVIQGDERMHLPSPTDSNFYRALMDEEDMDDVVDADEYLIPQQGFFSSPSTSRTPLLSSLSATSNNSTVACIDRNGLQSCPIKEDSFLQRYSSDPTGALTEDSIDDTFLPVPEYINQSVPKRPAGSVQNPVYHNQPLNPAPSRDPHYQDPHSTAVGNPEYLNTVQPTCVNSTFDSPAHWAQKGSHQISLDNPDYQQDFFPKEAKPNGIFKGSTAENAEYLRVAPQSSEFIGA

Row | SMILES | IC50 (SW-620) [nM] | IC50 (C-src kinase) [nM] | IC50 [1] [nM] | IC50 ([2]; read-out: FGFr-TK IC50) [nM] | life span of animals infected with transplanted tumors (transplanted tumors) | IC50 (HT-29) [nM] | IC50 [3] [nM] | IC50 (HCT-8; [4]) [nM] | IC50 (HCT-8) [nM] | IC50 [2] [nM] | IC50 (PDGF receptor) [nM]
1 | Cn1c(=O)c(-c2c(Cl)cccc2Cl)cc2cnc(Nc3ccc(Cl)cc3)nc21 [Example 56, 2-(4-Chlorophenylamino)-6-(2,6-dichlorophenyl)-8-methyl-8H-pyrido[2,3-d]pyrimidin-7-one] | 1100 | 70 | 1680 | 3010 |  |  |  |  |  |  | 
2 | CCN(CC)CCOc1ccc(Nc2ncc3cc(-c4c(Cl)cccc4Cl)c(=O)n(C)c3n2)cc1 [Example 80, 6-(2,6-Dichlorophenyl)-2-[4-(2-diethylaminoethoxy)-phenylamino]-8-methyl-8H-pyrido[2,3-d]pyrimidin-7-one] |  |  |  |  | increased the life span |  |  |  |  |  | 
3 | CCn1c(=O)c(-c2c(Cl)cccc2Cl)cc2cnc(Nc3ccccc3)nc21 [Example 69, 6-(2,6-Dichloropherlyl)-8-ethyl-2-pherlylamino-8H-pyrido[2,3-d]pyrimidin-7-one] |  | 79 | 593 | 214 |  | 1110 | 120 |  |  |  | 
4 | CCn1c(=O)c(-c2c(Cl)cccc2Cl)cc2cnc(NCCCN3CCN(C)CC3)nc21 [Example 70, 6-(2,6-Dichlorophenyl)-8-ethyl-2-[3-(4-methyl-piperazin-1-yl)-propylamino]-8H-pyrido[2,3-d]pyrimidin-7-one] |  | 70 | 475 | 109 |  | 3500 |  |  |  |  | 
5 | Cc1ccc(Nc2ncc3cc(-c4c(Cl)cccc4Cl)c(=O)n(C)c3n2)cc1 [Example 63, 6-(2,6-Dichlorophenyl)-8-methyl-2-p-tolylamino-8H-pyrido[2,3-d]pyrimidin-7-one] |  |  | 1010 | 1050 |  |  | 140 | 1000 |  |  | 
6 | CN1CCN(CCCNc2ncc3cc(-c4c(Cl)cccc4Cl)c(=O)n(C)c3n2)CC1 [Example 38, 6-(2,6-Dichlorophenyl)-8-methyl-2-[3-(4-methylpiperazin-1-yl)-propylamino]-8H-pyrido[2,3-d]pyrimidin-7-one] |  | 3 | 1090 |  |  |  | 8700 |  | 3150 | 230 | 
7 | Cn1c(=O)c(-c2c(Cl)cccc2Cl)cc2cnc(Nc3ccc4c(c3)OCO4)nc21 [Example 57, 2-(Benzo[1,3]dioxol-5-ylamino)-6-(2,6-dichlorophenyl)-8-methyl-8H-pyrido[2,3-d]pyrimidin-7-one] | 520 | 50 | 440 | 646 |  | 740 | 89 | 250 |  |  | 
8 | Cn1c(=O)c(-c2c(Cl)cccc2Cl)cc2cnc(Nc3cccc(Br)c3)nc21 [Example 55, 2-(3-Bromophenylamino)-6-(2,6-dichlorophenyl)-8-methyl-8H-pyrido[2,3-d]pyrimidin-7-one] | 120 | 59 | 1800 | 2200 |  | 430 |  | 110 |  |  | 60
9 | Cn1c(=O)c(-c2c(Cl)cccc2Cl)cc2cnc(Nc3ccncc3)nc21 [Example 58, 6-(2,6-Dichlorophenyl)-8-methyl-2-(pyridin-4-ylamino)-8H-pyrido[2,3-d]pyrimidin-7-one] | 130 | 23 | 71 | 159 |  | 380 | 119 | 170 |  |  | 13
10 | Cn1c(=O)c(-c2c(Cl)cccc2Cl)cc2cnc(N)nc21 [Example 12, 2-Amino-6-(2,6-dichlorophenyl)-8-methyl-pyrido[2,3-d]-pyrimidin-7(8H)-one] |  |  |  |  |  |  | 5600 |  |  |  | 9400
